Measured values reported in PMC10897400, “Biochemical and structural characterization of an inositol pyrophosphate kinase from a giant virus” (The EMBO Journal, 2024).

Key:
[1] = biological target: T1, TvIPK^17-265 (Terrestrivirus sp., UniProt A0A3G4ZNY6); assay: X-ray crystal structure; assay type: binding; settings: Cd2+ in place of Mg2+, soaked 5 mM, Pi present
T1 construct: gene Terrestrivirus9_15; truncated crystallization construct, residues 17-265, E. coli; residues 17-47 not traced; one molecule per asymmetric unit
T1 sequence (A0A3G4ZNY6 17-265): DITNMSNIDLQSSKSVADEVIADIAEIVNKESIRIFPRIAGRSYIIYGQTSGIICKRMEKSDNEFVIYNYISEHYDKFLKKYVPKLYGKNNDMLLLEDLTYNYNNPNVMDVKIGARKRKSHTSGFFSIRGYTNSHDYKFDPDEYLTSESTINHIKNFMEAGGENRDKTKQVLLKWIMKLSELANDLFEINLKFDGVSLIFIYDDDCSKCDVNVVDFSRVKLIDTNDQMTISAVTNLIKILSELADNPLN

[2] = biological target: T2, TvIPK (full length) (Terrestrivirus sp., UniProt A0A3G4ZNY6); assay: X-ray crystal structure; assay type: binding; settings: co-crystallised with 5 mM ADP, 10 mM MgCl2
T2 construct: gene Terrestrivirus9_15; full-length, codon-optimized, E. coli BL21(DE3); N-terminal His6-MBP tag removed with TEV protease
T2 sequence (A0A3G4ZNY6 1-265): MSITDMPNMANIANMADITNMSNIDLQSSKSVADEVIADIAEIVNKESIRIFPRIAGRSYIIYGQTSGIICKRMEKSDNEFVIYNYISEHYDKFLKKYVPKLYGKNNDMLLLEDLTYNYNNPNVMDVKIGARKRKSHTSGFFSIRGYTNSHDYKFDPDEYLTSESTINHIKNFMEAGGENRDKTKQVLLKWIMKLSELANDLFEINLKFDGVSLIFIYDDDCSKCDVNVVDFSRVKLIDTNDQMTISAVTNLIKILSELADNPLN

[3] = substrate: O=P(O)(O)O[C@H]1[C@H](OP(=O)(O)O)[C@@H](OP(=O)(O)O)[C@H](OP(=O)(O)O)[C@@H](OP(=O)(O)O)[C@H]1OP(=O)(O)O; assay: HPLC of [3H]IP6 pyrophosphorylation; assay type: biochemical, Terrestrivirus sp.; settings: 1 mM ATP, 3.5 mM MgCl2, pH 7.2, 25 °C, creatine kinase / creatine phosphate ATP regeneration, labelled compound
[4] = substrate: Nc1ncnc2c1ncn2[C@@H]1O[C@H](COP(=O)(O)OP(=O)(O)OP(=O)(O)O)[C@@H](O)[C@H]1O; assay: HPLC with [gamma-33P]ATP; assay type: biochemical, Terrestrivirus sp.; settings: 2 mM myo-IP6, 3.5 mM MgCl2, pH 7.2, 25 °C, labelled compound

In the case of Nc1ncnc2c1ncn2[C@@H]1O[C@H](COP(=O)(O)OP(=O)(O)NP(=O)(O)O)[C@@H](O)[C@H]1O [AMP-PNP], the X-ray crystal structure [1] is reported as “We also derived crystal complexes with ATP and AMP-PNP”.

For Nc1ncnc2c1ncn2[C@@H]1O[C@H](COP(=O)(O)OP(=O)(O)OP(=O)(O)O)[C@@H](O)[C@H]1O [ATP], the X-ray crystal structure ([1]; two ATP conformations) was “by making this substitution, we derived an ATP/TvIPK crystal complex”.

In the case of Nc1ncnc2c1ncn2[C@@H]1O[C@H](COP(=O)(O)OP(=O)(O)O)[C@@H](O)[C@H]1O [ADP], the X-ray crystal structure [2] is reported as “in a binary complex of full-length TvIPK plus ADP”.

B1: TvIPK (full length) (Terrestrivirus sp.) (protein)
chain: MSITDMPNMANIANMADITNMSNIDLQSSKSVADEVIADIAEIVNKESIRIFPRIAGRSYIIYGQTSGIICKRMEKSDNEFVIYNYISEHYDKFLKKYVPKLYGKNNDMLLLEDLTYNYNNPNVMDVKIGARKRKSHTSGFFSIRGYTNSHDYKFDPDEYLTSESTINHIKNFMEAGGENRDKTKQVLLKWIMKLSELANDLFEINLKFDGVSLIFIYDDDCSKCDVNVVDFSRVKLIDTNDQMTISAVTNLIKILSELADNPLN
notes: full-length, codon-optimized, E. coli BL21(DE3); N-terminal His6-MBP tag removed with TEV protease
For B1, the Km [3] was 81 µM and the Km [4] was 1600 µM.
